T/C data for three molecules are collected here from PubChem BioAssay AID250 (DTP/NCI, 2004).

The assay deals with BDF1 mice, L1210 leukemia sc, survival T/C. Put plainly: NCI In Vivo Anticancer Drug Screen. Data for tumor model L1210 Leukemia (subcutaneous) in B6D2F1 (BDF1) mice. The settings on record: endpoint: median survival time, higher = longer survival. As for the experimental part: The antitumor activity of compounds was measured in mice bearing transplantable tumors. Survival or tumor size were measured and the results are expressed as the measurement made in the treated group (T) divided by the measurement made in the vehicle treated control group (C). The tumor model used in this assay is L1210 Leukemia (subcutaneous) in B6D2F1 (BDF1) mice

The structures appear in SMILES notation. Toxic doses and inconclusive results are not listed.

Consider `C[n+]1ccc(Nc2ccc(NC(=O)c3ccc(Nc4cc[n+](C)c5ccc(N)cc45)cc3N)cc2)cc1`, for which the T/C reads like this: (dose: 0.5 mg/kg/injection, schedule: Q03HX024 (ip), vehicle: water) 111 % of control; (dose: 1.0 mg/kg/injection, schedule: Q01DX009 (ip), vehicle: water) 116 % of control; (dose: 2.0 mg/kg/injection, schedule: Q01DX009 (ip), vehicle: water) 155 % of control; (dose: 2.0 mg/kg/injection, schedule: Q01DX009 (sc), vehicle: water) 110 % of control; (dose: 2.0 mg/kg/injection, schedule: Q03HX024 (ip), vehicle: water) 183 % of control; (dose: 4.0 mg/kg/injection, schedule: Q01DX009 (ip), vehicle: water) 233 % of control. Moreover, the T/C (dose: 4.0 mg/kg/injection, schedule: Q01DX009 (sc), vehicle: water) is 170 % of control; the T/C (dose: 4.0 mg/kg/injection, schedule: Q03HX008 (sc), vehicle: water) was 120 % of control; the T/C (dose: 4.0 mg/kg/injection, schedule: Q03HX024 (ip), vehicle: water) was 288 % of control; the T/C (dose: 4.0 mg/kg/injection, schedule: Q03HX024 (sc), vehicle: water) is 165 % of control; the T/C (dose: 8.0 mg/kg/injection, schedule: Q01DX009 (ip), vehicle: water) was 194 % of control; the T/C (dose: 8.0 mg/kg/injection, schedule: Q01DX009 (sc), vehicle: water) was 225 % of control. Moreover, the T/C was 188 % of control (dose: 8.0 mg/kg/injection, schedule: Q03HX024 (ip), vehicle: water); 220 % of control (dose: 8.0 mg/kg/injection, schedule: Q03HX024 (sc), vehicle: water); 100 % of control (dose: 8.0 mg/kg/injection, schedule: Q04DX003 (sc), vehicle: water); 110 % of control (dose: 16.0 mg/kg/injection, schedule: Q01DX001 (sc), vehicle: water); 177 % of control (dose: 16.0 mg/kg/injection, schedule: Q01DX009 (ip), vehicle: water); 270 % of control (dose: 16.0 mg/kg/injection, schedule: Q01DX009 (sc), vehicle: water). In addition, the T/C was 235 % of control (dose: 16.0 mg/kg/injection, schedule: Q03HX008 (sc), vehicle: water); 155 % of control (dose: 16.0 mg/kg/injection, schedule: Q03HX024 (sc), vehicle: water); 180 % of control (dose: 32.0 mg/kg/injection, schedule: Q01DX009 (sc), vehicle: water); 210 % of control (dose: 32.0 mg/kg/injection, schedule: Q03HX008 (sc), vehicle: water); 100 % of control (dose: 32.0 mg/kg/injection, schedule: Q03HX024 (sc), vehicle: water); 205 % of control (dose: 32.0 mg/kg/injection, schedule: Q04DX003 (sc), vehicle: water). In addition, the T/C was 215 % of control (dose: 64.0 mg/kg/injection, schedule: Q01DX001 (sc), vehicle: water); 260 % of control (dose: 64.0 mg/kg/injection, schedule: Q04DX003 (sc), vehicle: water); 240 % of control (dose: 128.0 mg/kg/injection, schedule: Q01DX001 (sc), vehicle: water); 245 % of control (dose: 128.0 mg/kg/injection, schedule: Q04DX003 (sc), vehicle: water).
Consider `CC1CN1CCS(=O)(=O)CCN1CC1C` (centres undefined), for which the T/C reads like this: (dose: 5.18 mg/kg/injection, schedule: Q01DX Z (sc), vehicle: saline) 121 % of control; (dose: 8.64 mg/kg/injection, schedule: Q01DX Z (sc), vehicle: saline) 168 % of control; (dose: 14.4 mg/kg/injection, schedule: Q01DX Z (sc), vehicle: saline) 163 % of control; (dose: 24.0 mg/kg/injection, schedule: Q01DX Z (sc), vehicle: saline) 115 % of control; (dose: 40.0 mg/kg/injection, schedule: Q01DX Z (sc), vehicle: saline) 105 % of control.
Regarding `O=c1[nH]c(=O)n(C2CC(O)C(CO)O2)cc1I` (centres undefined), the T/C is, setting by setting: (dose: 14.0 mg/kg/injection, schedule: Q01DX Z (sc), vehicle: saline) 100 % of control; (dose: 23.0 mg/kg/injection, schedule: Q01DX Z (sc), vehicle: saline) 100 % of control; (dose: 39.0 mg/kg/injection, schedule: Q01DX Z (sc), vehicle: saline) 106 % of control; (dose: 65.0 mg/kg/injection, schedule: Q01DX Z (sc), vehicle: saline) 103 % of control; (dose: 108.0 mg/kg/injection, schedule: Q01DX Z (sc), vehicle: saline) 103 % of control; (dose: 180.0 mg/kg/injection, schedule: Q01DX Z (sc), vehicle: saline) 100 % of control.
